Laboratory results taken from ChEMBL document CHEMBL1201862, “PubChem BioAssay data set” (2004).
Activity calls are given as the source filed them.

Columns and labels:
[1] = target: T1, Sentrin-specific protease 1 (Homo sapiens, UniProt Q9P0U3); experiment: Dose response confirmation of small molecule inhibitors of the catalytic domain of the SUMO protease, SENP1 in a FRET assay.; assay type: functional; settings: read-out: IC50_Mean
[2] = target: T1, Sentrin-specific protease 1; experiment: SENP1 catalytic domain blockers, concentration series – biochemical, kinetic FRET, dose response (AID 651697); assay type: functional; settings: read-out: IC50_Mean
[3] = viability of uninfected HEp-2 cells – cell-based, HTS, cytotoxicity control for RSV inhibitor project, dose response (AID 2410); assay type: functional; settings: human respiratory syncytial virus
[4] = target: T2, Methionyl-tRNA synthetase, putative (Trypanosoma brucei brucei, UniProt Q38C91); assay type: functional, Trypanosoma brucei brucei strain 927/4 GUTat10.1
T2 sequence (Q38C91 whole entry): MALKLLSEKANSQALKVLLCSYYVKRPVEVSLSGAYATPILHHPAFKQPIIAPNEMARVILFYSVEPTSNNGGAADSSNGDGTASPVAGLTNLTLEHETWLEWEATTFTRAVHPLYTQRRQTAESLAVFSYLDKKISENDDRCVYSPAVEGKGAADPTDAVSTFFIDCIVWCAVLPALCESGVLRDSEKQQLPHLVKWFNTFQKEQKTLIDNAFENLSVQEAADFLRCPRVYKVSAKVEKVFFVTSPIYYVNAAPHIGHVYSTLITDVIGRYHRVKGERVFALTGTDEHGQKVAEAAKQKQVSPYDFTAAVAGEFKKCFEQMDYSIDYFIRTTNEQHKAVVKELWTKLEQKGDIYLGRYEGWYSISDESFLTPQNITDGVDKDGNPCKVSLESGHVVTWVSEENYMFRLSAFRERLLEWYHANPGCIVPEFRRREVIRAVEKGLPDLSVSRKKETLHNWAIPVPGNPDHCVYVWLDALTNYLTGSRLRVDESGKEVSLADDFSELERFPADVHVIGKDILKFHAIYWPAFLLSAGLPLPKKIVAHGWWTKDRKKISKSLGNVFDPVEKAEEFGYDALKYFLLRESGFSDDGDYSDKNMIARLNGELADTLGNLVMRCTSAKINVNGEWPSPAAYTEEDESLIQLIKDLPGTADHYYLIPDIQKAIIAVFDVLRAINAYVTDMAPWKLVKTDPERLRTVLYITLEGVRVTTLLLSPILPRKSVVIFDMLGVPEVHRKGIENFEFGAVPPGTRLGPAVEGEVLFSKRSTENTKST

[5] = target: T2, Methionyl-tRNA synthetase, putative; assay type: functional, Trypanosoma brucei brucei strain 927/4 GUTat10.1; remark: listed apart in the source
[6] = Counterscreen for inhibitors of Trypanosoma brucei methionyl tRNA synthetase (MetRS): Luminescence-based cell-based high throughput dose response assay to identify compounds that are cytotoxic to Jurkat human T lymphocyte cells.; assay type: functional
[7] = activation of miR-122 Renilla sensor silencing – cell-based, Huh7 psiCHECK-miR122, Renilla luciferase, cherry-picked, dose response (AID 651956); assay type: functional;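 note: huh7 hepatoma cells stably carrying a psiCHECK-2 miR-122 sensor plasmid; renilla luciferase signal reporting endogenous miR-122 activity after 48 h compound exposure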
[8] = target: T3, Rac GTPase-activating protein 1 (Homo sapiens, UniProt Q9H0H5); experiment: blockers of MgcRacGAP-driven Rac1 GTP hydrolysis – biochemical, ADP Hunter fluorescence, primary and confirmatory, confirmation (AID 624330); assay type: functional
T3 sequence (Q9H0H5 whole entry): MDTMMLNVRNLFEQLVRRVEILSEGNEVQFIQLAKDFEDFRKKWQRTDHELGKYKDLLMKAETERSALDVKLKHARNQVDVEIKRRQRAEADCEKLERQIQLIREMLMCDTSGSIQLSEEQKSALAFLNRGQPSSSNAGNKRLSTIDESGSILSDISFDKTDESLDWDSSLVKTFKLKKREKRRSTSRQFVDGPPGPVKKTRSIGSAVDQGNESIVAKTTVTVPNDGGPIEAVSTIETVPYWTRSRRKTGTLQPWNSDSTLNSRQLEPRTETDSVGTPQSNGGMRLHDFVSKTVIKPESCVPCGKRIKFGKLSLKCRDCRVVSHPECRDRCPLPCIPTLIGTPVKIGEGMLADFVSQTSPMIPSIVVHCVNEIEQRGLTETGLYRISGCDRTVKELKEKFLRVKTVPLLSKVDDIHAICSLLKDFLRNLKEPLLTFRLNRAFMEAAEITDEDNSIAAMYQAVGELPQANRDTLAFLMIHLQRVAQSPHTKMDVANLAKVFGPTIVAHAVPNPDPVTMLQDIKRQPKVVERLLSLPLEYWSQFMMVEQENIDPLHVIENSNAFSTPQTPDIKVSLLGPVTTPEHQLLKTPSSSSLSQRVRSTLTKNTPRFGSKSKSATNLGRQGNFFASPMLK

[9] = viability loss in HeLa cells – cytotoxicity control for MgcRacGAP inhibitor project, dose response (AID 624300); assay type: functional
[10] = A549 cell cytotoxicity, dose response, cytotoxicity control, plate reader, cherry-pick, antagonist series (AID 743412); assay type: functional, cell-based
[11] = target: T4, Heat shock factor protein 1 (Mus musculus, UniProt P38532); experiment: decrease of HSF1-responsive luciferase luminescence – cell-based, NIH3T3, dose retest, confirmation (AID 2382); assay type: functional;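 note: NIH3T3 fibroblasts with HSF1-driven luciferase reporter stressed by proteasome inhibitor MG132; luminescence from HSF1-driven luciferase expression after 8 hours of MG132 stress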
T4 sequence (P38532 whole entry): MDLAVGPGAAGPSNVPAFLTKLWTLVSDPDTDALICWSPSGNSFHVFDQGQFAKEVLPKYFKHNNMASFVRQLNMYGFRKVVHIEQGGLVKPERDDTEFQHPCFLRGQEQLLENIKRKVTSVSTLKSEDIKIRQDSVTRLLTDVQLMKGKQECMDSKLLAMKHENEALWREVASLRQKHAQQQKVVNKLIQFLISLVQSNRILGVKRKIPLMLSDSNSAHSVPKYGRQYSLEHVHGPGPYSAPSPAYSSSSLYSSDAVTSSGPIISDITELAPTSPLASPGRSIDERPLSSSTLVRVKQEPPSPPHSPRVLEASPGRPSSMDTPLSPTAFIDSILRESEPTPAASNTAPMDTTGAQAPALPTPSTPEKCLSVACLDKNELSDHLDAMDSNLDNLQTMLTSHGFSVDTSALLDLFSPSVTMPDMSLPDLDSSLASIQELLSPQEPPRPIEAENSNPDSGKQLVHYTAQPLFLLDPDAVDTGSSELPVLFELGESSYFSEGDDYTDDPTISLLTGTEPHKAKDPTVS

[12] = luciferase reporter signal reduction – luminescence, H4-C neuroglioblastoma cells, dose response (AID 2458); assay type: functional, cell-based;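 note: H4 neuroglioblastoma cells stably carrying a luciferase reporter gene fusion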
[13] = target: Photoreceptor-specific nuclear receptor (Homo sapiens, UniProt Q9Y5X4); assay type: functional, cell-based;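 note: CHO-S cells with Gal4-NCOR and VP16-NR2E3 two-hybrid luciferase reporter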
Sequence of Photoreceptor-specific nuclear receptor (Q9Y5X4 whole entry, the tested form may be a part): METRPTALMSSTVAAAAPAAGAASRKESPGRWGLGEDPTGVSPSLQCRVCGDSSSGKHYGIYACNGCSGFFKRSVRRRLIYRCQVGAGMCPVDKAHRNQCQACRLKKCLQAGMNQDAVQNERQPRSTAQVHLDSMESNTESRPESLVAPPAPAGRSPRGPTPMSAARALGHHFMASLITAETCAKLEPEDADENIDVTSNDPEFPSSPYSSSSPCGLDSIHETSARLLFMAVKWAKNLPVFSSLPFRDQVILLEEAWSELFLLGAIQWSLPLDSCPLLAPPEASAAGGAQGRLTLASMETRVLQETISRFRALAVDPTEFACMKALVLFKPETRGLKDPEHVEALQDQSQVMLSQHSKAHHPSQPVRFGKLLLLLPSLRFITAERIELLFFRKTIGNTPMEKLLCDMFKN

cells = assay type: functional, cell-based
[14] = viability loss in HEK293 cells – cell-based, plate reader, cherry-picked samples, cytotoxicity control, dose response (AID 743446); assay type: functional
[15] = alpha-synuclein stem-loop luciferase translation blockers – H4 neuroglioma cells, luminescence, confirmation (AID 1988); assay type: functional, cell-based
[16] = Luminescence Cell-Based Dose Response HTS to Identify Inhibitors of 5'UTR Stem-Loop Driven Prion Protein mRNA Translation in H4 Neuroglioblastoma Cells. [Related pubchem assays: 1827 (Project Summary), 1813 (Primary HTS)]; assay type: functional
[17] = toxicity toward HepG2 liver cells – cell-based, plate reader, cherry-pick, antagonist series, cytotoxicity control, dose response (AID 743416); assay type: functional
[18] = blockers of bursicon-stimulated LGR2 cAMP reporter – cell-based, HEK293, CRE-luciferase reporter, cherry pick, set 2, dose response (AID 743343); assay type: functional;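 note: transfected cells were stimulated with diluted bursicon conditioned medium after compound addition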
[19] = alpha-synuclein stem-loop translation blockers – luminescence, H4 neuroglioblastoma cells, dose confirmation, confirmation (AID 2454); assay type: functional, cell-based;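 note: H4 neuroglioblastoma cells carrying an alpha-synuclein 5'UTR luciferase reporter; potency for inhibition of the luciferase signal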
[20] = blockade of melanocortin 4 receptor signaling – cell-based, plate reader, cherry pick, counter-screen for LGR2 antagonist project, dose response (AID 743444); assay type: functional;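 note: transfected HEK 293 cells stimulated with alpha-MSH peptide; potency of inhibitors of the alpha-MSH evoked signal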

T1 sequence (Q9P0U3 whole entry, the tested form may be a part): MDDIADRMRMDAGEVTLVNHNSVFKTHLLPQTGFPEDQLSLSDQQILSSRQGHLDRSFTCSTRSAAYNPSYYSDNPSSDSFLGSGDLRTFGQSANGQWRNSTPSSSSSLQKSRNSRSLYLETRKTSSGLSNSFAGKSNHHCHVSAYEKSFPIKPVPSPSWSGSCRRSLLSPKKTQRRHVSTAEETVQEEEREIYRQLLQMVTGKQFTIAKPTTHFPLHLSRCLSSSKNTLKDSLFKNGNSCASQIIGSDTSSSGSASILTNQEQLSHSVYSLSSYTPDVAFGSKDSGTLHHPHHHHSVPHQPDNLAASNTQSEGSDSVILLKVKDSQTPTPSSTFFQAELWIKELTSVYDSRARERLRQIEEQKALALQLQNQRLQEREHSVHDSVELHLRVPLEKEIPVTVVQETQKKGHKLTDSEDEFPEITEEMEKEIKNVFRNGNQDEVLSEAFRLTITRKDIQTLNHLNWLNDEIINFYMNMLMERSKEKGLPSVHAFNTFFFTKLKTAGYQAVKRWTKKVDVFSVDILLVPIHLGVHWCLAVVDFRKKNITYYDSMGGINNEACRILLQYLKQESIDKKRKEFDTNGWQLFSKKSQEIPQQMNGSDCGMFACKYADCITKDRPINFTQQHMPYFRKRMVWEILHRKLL

## COc1ccc(-c2ccc3c(c2)S(=O)(=O)c2cccc(C(=O)NCCOc4ccccc4)c2C3=O)cc1OC
[1]
  IC50: 8.3 µM (active)
[2]
  IC50: 10.5 µM (active)
[3]
  CC50: 46.1 µM (active)

## O=C(NCCCCc1ccccc1)Nc1cccc(F)c1
[4]
  IC50: 11.9 µM (inactive)
[5]
  IC50: 15.5 µM (inactive)
[6]
  IC50: 83.3 µM (inactive)

## CC(C)(C)c1ccc(S(=O)(=O)NCCc2ccncc2)cc1
[7]
  AC50: 25 µM (active)

## COc1cc(/C=N/NC(=O)NC23CC4CC(CC(C4)C2)C3)ccc1O
[8]
  IC50: 54.5 µM (active)
[9]
  CC50: 100 µM (active)

## Cc1cc(C(=O)Nc2ccc(Cl)cc2)c(C)n1-c1ccccc1
[10]
  AC50: > 52 µM (inactive)
[11]
  EC50: < 0.16 µM (active)
[12]
  EC50: 0.409 µM (active)
[13]
  IC50: 0.017 µM (active)
cells
  EC50: 1.43 µM (active)
[14]
  AC50: > 52 µM (inactive)
[15]
  EC50: < 0.1 µM (active)
[16]
  EC50: 8.36 µM (active)
[17]
  AC50: > 52 µM (inactive)
[18]
  AC50: < 0.068 µM (active)
[19]
  EC50: 0.149 µM (active)
[20]
  AC50: < 0.068 µM (active)
